Consider nine compounds from PubChem BioAssay (NCI).

“And” between values parts separate entries of the source, which are not always exact repeats. Equal entries are not always repeated.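 These data come from cells grown in 96-well plates and exposed to compound for 48 hours at five concentrations. GI50 is the concentration that inhibits growth by half. The concentration for full growth arrest is given as TGI.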

Among the test systems are A498 renal; HOP-92 NSCLC; LOX IMVI melanoma; MALME-3M melanoma; MCF7 breast; NCI-H226 lung; OVCAR-5 ovarian; SF-539 CNS; SK-MEL-2 melanoma; SR leukemia.
Experiment in all cases: growth of human tumour cells (NCI), 48 h

With `COc1cc(-c2nc3sc(C)cn3c2/C=C2\C(=O)Nc3ccccc32)c(Br)c(OC)c1OC`, the GI50 in the assay with A498 renal is 29 µM; in the assay with HOP-92 NSCLC, 26.7 µM; in the assay with LOX IMVI melanoma, 30.3 µM; in the assay on MALME-3M melanoma, 26.1 µM; with MCF7 breast, 5.81 µM; in the assay with NCI-H226 lung, 44.2 µM. Besides, the GI50 was 55.9 µM with OVCAR-5 ovarian, 19.2 µM with SF-539 CNS, 33.6 µM with SK-MEL-2 melanoma and 28.3 µM in the assay with SR leukemia. Besides, the TGI in the assay with A498 renal is 63.5 µM; in the assay on HOP-92 NSCLC, 77 µM; with LOX IMVI melanoma, more than 100 µM; in the assay on MALME-3M melanoma, 78.5 µM; with MCF7 breast, 43.3 µM; in the assay with NCI-H226 lung, more than 100 µM. Besides, the TGI in the assay on OVCAR-5 ovarian is more than 100 µM; with SF-539 CNS it was 38.3 µM; in the assay with SK-MEL-2 melanoma, more than 100 µM; in the assay on SR leukemia, more than 100 µM.

`COc1cc(/C=C2\CCC/C(=C\c3ccc(O)c(OC)c3)C2=O)ccc1O`: the GI50 is 1.81 µM in the assay on A498 renal; 1.46 µM in the assay with LOX IMVI melanoma; 0.276 µM with MALME-3M melanoma; 2.1 µM with MCF7 breast; 2.3 µM in the assay on OVCAR-5 ovarian; 1.96 µM in the assay with SK-MEL-2 melanoma. In addition, the GI50 in the assay with SR leukemia is 1.08 µM. Moreover, the TGI with A498 renal is 13.5 µM and 5.34 µM; in the assay on HOP-92 NSCLC, 30.7 µM; with LOX IMVI melanoma, 3.49 µM and 2.83 µM; with MALME-3M melanoma, 5.85 µM and 3.47 µM; in the assay on MCF7 breast it was 40.5 µM and 9.81 µM; in the assay with NCI-H226 lung, 16.8 µM. The TGI was 26.6 µM and 5.67 µM in the assay with OVCAR-5 ovarian; 4.42 µM and 5.73 µM in the assay with SF-539 CNS; 12.7 µM and 4.94 µM in the assay on SK-MEL-2 melanoma.

As to `Cn1c(=O)nc2n(-c3ccc(Cl)cc3)c3cc(Cl)ccc3nc-2c1=O`, the TGI in the assay with A498 renal is 27.6 µM; in the assay on HOP-92 NSCLC, 18.5 µM; with LOX IMVI melanoma, 5.84 µM; in the assay with MALME-3M melanoma, 3.44 µM; in the assay with MCF7 breast, 2.8 µM; in the assay on NCI-H226 lung, 42.5 µM. The TGI is 29.1 µM in the assay on OVCAR-5 ovarian, 30.4 µM with SF-539 CNS, 5.63 µM with SK-MEL-2 melanoma and 29.8 µM with SR leukemia.

For `Cn1c2c(c3ccccc31)CCN(CCCCN1CCN(c3ccccc3)CC1)C2=O`, the TGI with A498 renal was more than 100 µM; in the assay on HOP-92 NSCLC, more than 100 µM; in the assay with LOX IMVI melanoma, 32.1 µM; in the assay with MALME-3M melanoma it was 30.9 µM; in the assay on MCF7 breast, 63.2 µM; with NCI-H226 lung, more than 87 µM. In addition, the TGI is 80.9 µM in the assay on OVCAR-5 ovarian, more than 100 µM with SF-539 CNS, more than 77.6 µM with SK-MEL-2 melanoma and more than 100 µM with SR leukemia.

In the case of `CC1(C)N=C(N)N=C(N)N1c1ccc(Cl)cc1`, the GI50 with A498 renal is more than 100 µM; with HOP-92 NSCLC, more than 100 µM; in the assay on LOX IMVI melanoma, 2.85 µM; in the assay on MALME-3M melanoma, 16.1 µM; with MCF7 breast it was 4.88 µM; with NCI-H226 lung, more than 100 µM. For the same compound, the GI50 in the assay with OVCAR-5 ovarian was 0.854 µM; in the assay on SF-539 CNS, 1.94 µM; in the assay on SK-MEL-2 melanoma it was more than 100 µM; in the assay on SR leukemia it was 20.5 µM. The TGI in the assay with A498 renal, in the assay with HOP-92 NSCLC, in the assay with LOX IMVI melanoma, in the assay with MALME-3M melanoma, with MCF7 breast and in the assay with NCI-H226 lung was more than 100 µM each time. The TGI with OVCAR-5 ovarian, in the assay with SF-539 CNS, with SK-MEL-2 melanoma and with SR leukemia was more than 100 µM throughout.

On to `CC1=C(C)C(=O)O[C@@H]([C@](C)(O)[C@]2(O)CC[C@@]3(O)[C@@H]4C[C@H](O)[C@]5(O)[C@@H](O)C=CC(=O)[C@]5(C)[C@H]4CC[C@]23C)C1`, for which the TGI with A498 renal, in the assay with HOP-92 NSCLC, with LOX IMVI melanoma, in the assay on MALME-3M melanoma, in the assay on MCF7 breast and with NCI-H226 lung was more than 100 µM each time. Further, the TGI in the assay on OVCAR-5 ovarian is more than 100 µM; in the assay on SF-539 CNS, more than 100 µM; in the assay with SK-MEL-2 melanoma it was more than 100 µM; with SR leukemia, 84.3 µM.

As for `COC1=C(C)C(=O)c2c(c(CCCl)c3n2CCC3OC(C)=O)C1=O` (centres undefined), the GI50 with A498 renal is 0.0632 µM; in the assay on HOP-92 NSCLC it was 4.48 µM; with LOX IMVI melanoma it was 0.204 µM; in the assay with MALME-3M melanoma it was 0.188 µM; with MCF7 breast it was 0.071 µM; in the assay on NCI-H226 lung, 0.246 µM. Moreover, the GI50 in the assay on OVCAR-5 ovarian is 0.325 µM; in the assay on SF-539 CNS, 0.157 µM; with SK-MEL-2 melanoma, 0.319 µM; with SR leukemia, 0.155 µM. Further, the TGI turned out to be 0.166 µM in the assay on A498 renal; 24 µM in the assay with HOP-92 NSCLC; 0.927 µM with LOX IMVI melanoma; 0.414 µM with MALME-3M melanoma; 1.85 µM in the assay with MCF7 breast; 1.03 µM in the assay with NCI-H226 lung. The TGI with OVCAR-5 ovarian was 9.32 µM; with SF-539 CNS, 0.545 µM; with SK-MEL-2 melanoma, 1 µM; in the assay on SR leukemia it was more than 32.5 µM.

Regarding `CC(=O)CC/C=C(\C)[C@H](O)[C@H](C)C(=O)O[C@H]1C[C@H](C)C=C2C=C[C@@]3(C)O[C@@H](O)CC(=O)[C@]3(C)[C@H]21`, the GI50 with A498 renal was 2.55 µM; in the assay with HOP-92 NSCLC, 1.53 µM; in the assay on LOX IMVI melanoma it was 0.279 µM; in the assay with MALME-3M melanoma it was 0.588 µM; in the assay on MCF7 breast it was 0.5 µM; in the assay with NCI-H226 lung, 0.423 µM. Further, the GI50 in the assay with OVCAR-5 ovarian was 1.04 µM; with SF-539 CNS it was 0.366 µM; in the assay with SK-MEL-2 melanoma, 0.419 µM; in the assay with SR leukemia it was 0.362 µM. Moreover, the TGI with A498 renal came out at 7.95 µM; with HOP-92 NSCLC, 7.06 µM; in the assay with LOX IMVI melanoma, 1.69 µM; in the assay on MALME-3M melanoma, 2.7 µM; in the assay with MCF7 breast, 6.19 µM; in the assay on NCI-H226 lung, 4.6 µM. The TGI stood at 6.62 µM in the assay on OVCAR-5 ovarian, 2.37 µM in the assay with SF-539 CNS, 1.91 µM in the assay on SK-MEL-2 melanoma and 12 µM in the assay on SR leukemia.

Regarding `N#CC(C#N)=C1CCOc2ccc(F)cc21`, the GI50 with A498 renal was 23 µM; in the assay with HOP-92 NSCLC it was 2.05 µM; in the assay on LOX IMVI melanoma it was 11.7 µM; with MCF7 breast it was 11.3 µM; in the assay on NCI-H226 lung, 18 µM; in the assay on OVCAR-5 ovarian, 16.4 µM. The GI50 in the assay with SF-539 CNS was 12.4 µM; in the assay with SK-MEL-2 melanoma it was more than 100 µM; with SR leukemia, 12.6 µM. Moreover, the TGI with A498 renal came to 49.9 µM; in the assay on HOP-92 NSCLC, 15.9 µM; in the assay on LOX IMVI melanoma, 23.9 µM; in the assay on MCF7 breast, 23.3 µM; in the assay with NCI-H226 lung, 53.7 µM; in the assay on OVCAR-5 ovarian it was 39.9 µM. Moreover, the TGI in the assay with SF-539 CNS is 24.9 µM; in the assay on SK-MEL-2 melanoma it was more than 100 µM; with SR leukemia, 25.2 µM.
